Data set [1] has as its system Cricetinae gen. sp. Put plainly: Inhibition of Human Leukocyte Elastase (HLE) induced lung hemorrhage in hamster at an oral dose of 2.5 mg/kg. It counts as functional, Cricetulus griseus.
A short description of data set [2]: Partition coefficient (logP). The class given is physicochemical. Conditions: octanol/water.
In data set [3] the test system is Cricetinae gen. sp. Description: Inhibition of Human Leukocyte Elastase (HLE) induced lung hemorrhage in hamster at an oral dose of 20 mg/kg; […]. The class given is functional, organism-based. Details: dose 20 mg/kg. The note with it: Cricetulus griseus.
Data set [4] concerns Cricetinae gen. sp. Description: Inhibition of Human Leukocyte Elastase (HLE) induced lung hemorrhage in hamster at an oral dose of 20 mg/kg. It counts as functional, Cricetulus griseus.
The nature of data set [5]: Bioavailability was evaluated in hamster. Conditions: cricetinae, in vivo; read-out: Bioavailabiility. The class given is ADME, organism-based.
Data set [6] in a line: Bioavailability in rat. The class given is ADME, organism-based. The note with it: in vivo, read-out: Bioavailabiility.
Data set [7] in a line: Bioavailability was evaluated in dog. The class given is ADME, organism-based, Canis lupus familiaris. Conditions: in vivo, read-out: Bioavailabiility.
The subject of data set [8] is Cricetinae gen. sp. Put plainly: The compound was evaluated for effective dose after oral dosing. It counts as functional, Cricetulus griseus.

Active and inactive are the calls of the source. The rule behind the calls is not given here.

The results in this text go back to ChEMBL document CHEMBL1127644, “Design of orally active, non-peptidic inhibitors of human leukocyte elastase” (J Med Chem, 1994).

In general, inhibition in vivo refers to the share of the control response that was lost under treatment. A high value points to a strong effect. On to `COC(=O)Nc1cnc(-c2ccc(F)cc2)n(CC(=O)NC(C(=O)C(F)(F)F)C(C)C)c1=O` (stereo not given), for which the inhibition in vivo at 2.5 mg/kg in the data set with Cricetinae gen. sp. [1] worked out at 39%.
What is called logP is the decadic logarithm of the partition coefficient of the neutral form, usually between octanol and water. The molecule `CC(C)C(NC(=O)Cn1c(-c2ccccc2)ccc(NC(=O)OCc2ccccc2)c1=O)C(=O)C(F)(F)F` (stereo not given) displayed a log partition coefficient (logP) in data set [2] above 4. The inhibition result in the data set on Cricetinae gen. sp. [3] is “inactive”.
For the molecule `CC(C)C(NC(=O)Cn1c(-c2ccccc2)ccc(NC(=O)OCc2ccc(C(=O)O)cc2)c1=O)C(=O)C(F)(F)F` (stereo not given), the inhibition entry with Cricetinae gen. sp. [3] was “inactive”.
Regarding `CC(C)C(NC(=O)Cn1c(-c2ccc(F)cc2)ncc(NC(=O)OCc2ccccc2)c1=O)C(=O)C(F)(F)F` (stereo not given), the inhibition in vivo at 20 mg/kg in the data set on Cricetinae gen. sp. [4] was found to be 63%.
As a reminder, the ED50 is the dose that gives a 50% effect, or the effect in half of the subjects. A higher ED50 goes with a need for a large dose. As for `CC(C)C(NC(=O)Cn1c(-c2ccc(F)cc2)ncc(N)c1=O)C(=O)C(F)(F)F` (stereo not given), the bioavailability was 77% in data set [5], 62% in data set [6] and 88% in data set [7]. 2.5 mg/kg produced 43% inhibition in vivo in the data set on Cricetinae gen. sp. [1]. For the same molecule, the ED50 with Cricetinae gen. sp. [8] came out at 7.5 mg/kg.
